Tests used:
Assay type in all cases: in vivo
[1] = tested on: Echinochloa crus-galli var. crus-galli; experiment: Test Example 3: herbicidal effect by application to foliage (Wagner pot, water depth 0.1-0.5 cm); details: Nineteenth Table; application to foliage; application herbicide amount 320 g/ha
Outline: (§1)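 Post-emergence foliar application at a stated g/ha rate to plants grown 14 days from seed in alluvial soil, greenhouse 25–30 °C. Visual score after 3 weeks: 0 (≤5% effect) through 5 (≥90%).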

Leptochloa chinensis = experiment: as above; details: Nineteenth Table; application to foliage; application herbicide amount 320 g/ha
Outline: as §1

Cyperus difformis = experiment: as above; details: Nineteenth Table; application to foliage; application herbicide amount 320 g/ha
Outline: as §1

[2] = tested on: directly sowed Oryza sativa; experiment: Test Example 4: effect on crop by application to foliage (diluvial soil, plastic box); details: foliage application, 320 g/ha
Outline: (§2)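 Emulsion-formulated compound, diluted to a predetermined g/ha dose, applied by small sprayer to leaves and stems of 14-day-old seedlings grown in sterilized diluvial soil. Effect rated on 0–5 herbicidal-ratio scale three weeks on.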

Brassica campestris L. = experiment: as above; details: foliage application, 320 g/ha
Outline: as §2

Glycine max = experiment: as above; details: foliage application, 320 g/ha
Outline: as §2

Zea mays = experiment: as above; details: foliage application, 320 g/ha
Outline: as §2

Triticum aestivum = experiment: as above; details: foliage application, 320 g/ha
Outline: as §2

[3] = tested on: Beta vulgaris ssp. vulgaris; experiment: as above; details: foliage application, 320 g/ha
Outline: as §2

Structure (SMILES) | H (herbicidal effect grade) [1] | D (herbicidal effect grade) (Leptochloa chinensis) | E (herbicidal effect grade) (Cyperus difformis) | d (directly sowed Oryza sativa) effect on crop grade [2] | g (Brassica campestris L.) effect on crop grade (Brassica campestris L.) | c (Glycine max) effect on crop grade (Glycine max) | b (Zea mays) effect on crop grade (Zea mays) | e (Triticum aestivum) effect on crop grade (Triticum aestivum) | f (Beta vulgaris ssp. vulgaris) effect on crop grade [3]
Cc1cc(-c2nnc3c(C(=O)Nc4nnnn4C)ccc(C(F)(F)F)n23)n(C)n1 [2-062] | 5 (Herbicidal ratio of 90% or more (almost completely withered)) | 5 (Herbicidal ratio of 90% or more (almost completely withered)) | 5 (Herbicidal ratio of 90% or more (almost completely withered)) | 5 (Herbicidal ratio of 90% or more (almost completely withered)) | 5 (Herbicidal ratio of 90% or more (almost completely withered)) | 5 (Herbicidal ratio of 90% or more (almost completely withered)) | 5 (Herbicidal ratio of 90% or more (almost completely withered)) | 4 (Herbicidal ratio of 70% or more and less than 90%) | 5 (Herbicidal ratio of 90% or more (almost completely withered))
COc1cc(OC)cc(-c2nnc3c(C(=O)Nc4nnnn4C)ccc(C(F)(F)F)n23)c1 [2-063] | 5 (Herbicidal ratio of 90% or more (almost completely withered)) | 5 (Herbicidal ratio of 90% or more (almost completely withered)) | 5 (Herbicidal ratio of 90% or more (almost completely withered)) | 4 (Herbicidal ratio of 70% or more and less than 90%) | 4 (Herbicidal ratio of 70% or more and less than 90%) | 3 (Herbicidal ratio of 40% or more and less than 70%) | 4 (Herbicidal ratio of 70% or more and less than 90%) | 3 (Herbicidal ratio of 40% or more and less than 70%) | 5 (Herbicidal ratio of 90% or more (almost completely withered))
Cn1nnnc1NC(=O)c1ccc(C(F)(F)F)n2c(-c3cc(Cl)cc(Cl)c3)nnc12 [2-064] | 1 (Herbicidal ratio of 5% or more and less than 20%) | 4 (Herbicidal ratio of 70% or more and less than 90%) | 5 (Herbicidal ratio of 90% or more (almost completely withered)) | 3 (Herbicidal ratio of 40% or more and less than 70%) | 3 (Herbicidal ratio of 40% or more and less than 70%) | 0 (Herbicidal ratio of 5% or less (almost no effect)) | 0 (Herbicidal ratio of 5% or less (almost no effect)) | 0 (Herbicidal ratio of 5% or less (almost no effect)) | 4 (Herbicidal ratio of 70% or more and less than 90%)
COc1ccc(Cc2nnc3c(C(=O)Nc4nnnn4C)ccc(C(F)(F)F)n23)cc1 [2-065] | 5 (Herbicidal ratio of 90% or more (almost completely withered)) | 5 (Herbicidal ratio of 90% or more (almost completely withered)) | 5 (Herbicidal ratio of 90% or more (almost completely withered)) | 4 (Herbicidal ratio of 70% or more and less than 90%) | 4 (Herbicidal ratio of 70% or more and less than 90%) | 4 (Herbicidal ratio of 70% or more and less than 90%) | 3 (Herbicidal ratio of 40% or more and less than 70%) | 3 (Herbicidal ratio of 40% or more and less than 70%) | 5 (Herbicidal ratio of 90% or more (almost completely withered))
CC(C)Nc1nnc2c(C(=O)Nc3nnnn3C)ccc(C(F)(F)F)n12 [2-066] | 5 (Herbicidal ratio of 90% or more (almost completely withered)) | 5 (Herbicidal ratio of 90% or more (almost completely withered)) | 5 (Herbicidal ratio of 90% or more (almost completely withered)) | 4 (Herbicidal ratio of 70% or more and less than 90%) | 4 (Herbicidal ratio of 70% or more and less than 90%) | 1 (Herbicidal ratio of 5% or more and less than 20%) | 4 (Herbicidal ratio of 70% or more and less than 90%) | 3 (Herbicidal ratio of 40% or more and less than 70%) | 5 (Herbicidal ratio of 90% or more (almost completely withered))
Cn1nnnc1NC(=O)c1ccc(C(F)(F)F)n2c([S+](C)[O-])nnc12 (stereo not drawn) [2-067] | 5 (Herbicidal ratio of 90% or more (almost completely withered)) | 5 (Herbicidal ratio of 90% or more (almost completely withered)) | 5 (Herbicidal ratio of 90% or more (almost completely withered)) | 5 (Herbicidal ratio of 90% or more (almost completely withered)) | 5 (Herbicidal ratio of 90% or more (almost completely withered)) | 4 (Herbicidal ratio of 70% or more and less than 90%) | 5 (Herbicidal ratio of 90% or more (almost completely withered)) | 4 (Herbicidal ratio of 70% or more and less than 90%) | 5 (Herbicidal ratio of 90% or more (almost completely withered))
CCCSc1nnc2c(C(=O)Nc3nnnn3C)ccc(C(F)(F)F)n12 [2-068] | 5 (Herbicidal ratio of 90% or more (almost completely withered)) | 5 (Herbicidal ratio of 90% or more (almost completely withered)) | 5 (Herbicidal ratio of 90% or more (almost completely withered)) | 4 (Herbicidal ratio of 70% or more and less than 90%) | 4 (Herbicidal ratio of 70% or more and less than 90%) | 3 (Herbicidal ratio of 40% or more and less than 70%) | 5 (Herbicidal ratio of 90% or more (almost completely withered)) | 2 (Herbicidal ratio of 20% or more and less than 40%) | 5 (Herbicidal ratio of 90% or more (almost completely withered))
CCC[S+]([O-])c1nnc2c(C(=O)Nc3nnnn3C)ccc(C(F)(F)F)n12 (stereo not drawn) [2-069] | 5 (Herbicidal ratio of 90% or more (almost completely withered)) | 5 (Herbicidal ratio of 90% or more (almost completely withered)) | 5 (Herbicidal ratio of 90% or more (almost completely withered)) | 4 (Herbicidal ratio of 70% or more and less than 90%) | 5 (Herbicidal ratio of 90% or more (almost completely withered)) | 4 (Herbicidal ratio of 70% or more and less than 90%) | 5 (Herbicidal ratio of 90% or more (almost completely withered)) | 3 (Herbicidal ratio of 40% or more and less than 70%) | 5 (Herbicidal ratio of 90% or more (almost completely withered))
CCCS(=O)(=O)c1nnc2c(C(=O)Nc3nnnn3C)ccc(C(F)(F)F)n12 [2-070] | 5 (Herbicidal ratio of 90% or more (almost completely withered)) | 5 (Herbicidal ratio of 90% or more (almost completely withered)) | 5 (Herbicidal ratio of 90% or more (almost completely withered)) | 3 (Herbicidal ratio of 40% or more and less than 70%) | 5 (Herbicidal ratio of 90% or more (almost completely withered)) | 4 (Herbicidal ratio of 70% or more and less than 90%) | 3 (Herbicidal ratio of 40% or more and less than 70%) | 4 (Herbicidal ratio of 70% or more and less than 90%) | 5 (Herbicidal ratio of 90% or more (almost completely withered))
CC(C)CSc1nnc2c(C(=O)Nc3nnnn3C)ccc(C(F)(F)F)n12 [2-071] | 4 (Herbicidal ratio of 70% or more and less than 90%) | 5 (Herbicidal ratio of 90% or more (almost completely withered)) | 5 (Herbicidal ratio of 90% or more (almost completely withered)) | 3 (Herbicidal ratio of 40% or more and less than 70%) | 4 (Herbicidal ratio of 70% or more and less than 90%) | 2 (Herbicidal ratio of 20% or more and less than 40%) | 1 (Herbicidal ratio of 5% or more and less than 20%) | 1 (Herbicidal ratio of 5% or more and less than 20%) | 5 (Herbicidal ratio of 90% or more (almost completely withered))
